Our source for the inhibition and IC50 values is US12617777B2, “GPR84 antagonists and uses thereof” (Liminal BioSciences Limited, priority 2021, dated 2026).

As usually defined, the inhibition is the percentage by which the read-out fell short of the control. Read a high inhibition as a strong effect. As a reminder, the IC50 is the point on the concentration scale where inhibition reaches its midpoint.

T1 sequence (Q9NQS5 whole entry): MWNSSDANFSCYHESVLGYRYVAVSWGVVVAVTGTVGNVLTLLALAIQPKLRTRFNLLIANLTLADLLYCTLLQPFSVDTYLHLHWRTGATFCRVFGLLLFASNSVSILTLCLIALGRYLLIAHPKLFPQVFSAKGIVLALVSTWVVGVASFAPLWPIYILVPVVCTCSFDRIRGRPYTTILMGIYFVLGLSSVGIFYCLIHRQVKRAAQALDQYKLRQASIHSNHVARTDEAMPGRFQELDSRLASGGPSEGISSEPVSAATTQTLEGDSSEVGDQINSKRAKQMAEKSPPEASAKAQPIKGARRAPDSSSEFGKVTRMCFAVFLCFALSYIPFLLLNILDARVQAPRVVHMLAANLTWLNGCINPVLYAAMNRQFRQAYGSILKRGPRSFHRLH

One test has as its target T1, human GPR84 receptor (Homo sapiens, UniProt Q9NQS5).
T1 construct: host or cells: HEK293, transient transfection
Description: Gαi biosensor BRET assay in HEK293 cells (antagonism of ZQ-16). It is filed as cell-based. Particulars: HEK293, single concentration 2 μM (designated A). Put shortly: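 HEK293 cells transiently expressing human GPR84, Gαi2-Rluc8, GFP10-Gγ2 and Gβ1, in Tyrode's buffer pH 7.5. Compounds preincubated 5 min at 37° C, then 200 nmol/L ZQ-16 for 5 min at room temperature; coelenterazine 400A 5 μmol/L. BRET2 acceptor/donor ratio, background- and vehicle-corrected net BRET.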
Regarding `COC(c1cn(Cc2ncccn2)nn1)c1cc(C#CC2CC2)ccc1C` (stereo not shown) [Compound I-674], the inhibition at 2 µM is above 75%.

As to `CO[C@@H](c1cn(C[C@@H]2CCCCO2)nn1)c1cc(C#CC2CC2)ccc1C` [Compound I-513], the inhibition at 2 µM is 25 to 50%.

On to `CN(C)c1cc(N2CCOCC2)ccc1-c1cn(CC2OCC(C)(C)CO2)nn1` [Compound I-863], for which the inhibition at 2 µM was above 75%.

Take `CN(c1ccc(C#N)cc1)c1cn(CC2OCC(C)(C)CO2)nn1` [Compound I-793, 4-((1-((5,5-dimethyl-1,3-dioxan-2-yl)methyl)-1H-1,2,3-triazol-4-yl)(methyl)amino)benzonitrile]: the inhibition at 2 µM is above 75%.

`Cc1cc(C#CCn2ccnn2)cnc1-c1cn(CC2CCCCO2)nn1` (stereo not shown) [Compound I-841, 5-(3-(1H-1,2,3-triazol-1-yl)prop-1-yn-1-yl)-3-methyl-2-(1-((tetrahydro-2H-pyran-2-yl)methyl)-1H-1,2,3-triazol-4-yl)pyridine] gave an inhibition at 2 µM above 75%.

`Cc1ccc(C#CC2CC2)cc1C1(c2cn(CC3OCC(C)(C)CO3)nn2)OCCO1` [Compound I-721] had an inhibition at 2 µM above 75%.

`Cc1ccc(C#CC2CC2)cc1N(C)c1cn(CC2OCC3(CC3)CO2)nn1` [Compound I-842] displayed an inhibition at 2 µM of 50 to 75%.

For the compound `CC1(C)COC(Cn2cc(-c3ncc(C#CC4CC4)cc3OC3CC3)nn2)OC1` [Compound I-702], the inhibition at 2 µM was above 75%.

As to `Cc1ccccc1C#Cc1cn(CC2OCC(C)(C)CO2)nn1` [Compound I-791], the inhibition at 2 µM is above 75%.

`CN(C)c1cc(N2CC(C)(CO)C2)c(F)cc1-c1cn(CC2CC(C)(C)CO2)nn1` (stereo not shown) [Compound I-710] returned an inhibition at 2 µM above 75%.

The test is the same for the next values; noted with them: HEK293, single concentration 10 μM (designated F).
`c1ccc(COc2ccc3c(c2)CCc2cn(CC4CCCCO4)nc2-3)cc1` (single isomer, unassigned) [Compound I-330] had an inhibition at 10 µM of at most 25%.

Turning to `Cc1ccc(OCc2ccccn2)cc1Cc1cn(CC2CCCCO2)nn1` (stereo not shown) [Compound I-444], the inhibition at 10 µM is at most 25%.

`Cc1cc(N2CC(C)(CO)C2)cnc1-c1cn(CC2OCC(C)(C)CO2)nn1` [Compound I-595] had an inhibition at 10 µM above 75%.

In the case of `CC1(CO)CN(c2ccc(-c3cn(CC4OCC5(CCC5)O4)nn3)c(OC3CC3)c2)C1` (stereo not shown) [Compound I-810], the inhibition at 10 µM was above 75%.

`Cc1cc(N2CCC3(CC2)CN(Cc2ccccc2)C3)ccc1-c1cn(CC2CCCCO2)nn1` (stereo not shown) [Compound I-173] came in with an inhibition at 10 µM of at most 25%.

`CC1(NCc2ccccn2)CN(c2ccc(-c3cn(CC4CCCCO4)nn3)c(CC(F)(F)F)c2)C1` (stereo not shown) [Compound I-744] displayed an inhibition at 10 µM above 75%.

Compound `C(#CC1CC1)c1ccc2c(c1)CCn1nc(OC[C@H]3COCCO3)cc1-2` (stereo in doubt) [Compound I-332, 2-((1,4-dioxan-2-yl)methoxy)-8-(cyclopropylethynyl)-5,6-dihydropyrazolo[5,1-a]isoquinoline] showed an inhibition at 10 µM of at most 25%.

Consider `Cc1cc(N2CCC(O)C2)ccc1-c1cn(CC2CCCCO2)nn1` (stereo not shown) [Compound I-436], for which the inhibition at 10 µM is at most 25%.

Compound `Cc1ccc(C(C)(C)O)cc1N(C)c1cn(CC2OCC(C)(C)CO2)nn1` [Compound I-830] had an inhibition at 10 µM of 50 to 75%.

`Cc1cc(C#CC2CC2)cnc1-c1cn(CC2OCC(C)(C)O2)nn1` (stereo not shown) [Compound I-601] returned an inhibition at 10 µM of at most 25%.

For `CC(=O)N1CCOCC1Cn1cc(-c2ccc(C#CC3CC3)cc2C)nn1` (stereo not shown) [Compound I-99], the inhibition at 10 µM is at most 25%.

The compound `Cc1ccc(C#CC2CC2)nc1-c1cn(CC2CCCCO2)nn1` (stereo not shown) [Compound I-479] registered an inhibition at 10 µM of at most 25%.

The compound `Cc1ccc(C#CC2CC2)cc1-c1nnc(CC2CCCCO2)o1` (stereo not shown) [Compound I-343] had an inhibition at 10 µM of 50 to 75%.

As to `CC(C)(C)OCCn1cc(-c2ccc(C#CC3CC3)cc2)nn1` [Compound I-97], the inhibition at 10 µM was at most 25%.

`Cc1cc(N2CCC3(CC2)CN(C)C3)ccc1-c1cn(CC2CCCCO2)nn1` (stereo not shown) [Compound I-172] displayed an inhibition at 10 µM of at most 25%.

Take `CNC1(C)CN(c2ccc(-c3cn(CC4CCCCO4)nn3)c(C)c2)C1` (stereo not shown) [Compound I-506]: the inhibition at 10 µM is 50 to 75%.

For `Cc1ccc(-c2ccc(-c3cn(C[C@H]4CCCCO4)nn3)nc2)cn1` [Compound I-32], the inhibition at 10 µM is at most 25%.

Consider `Cc1cc(C#CC2CC2)ccc1-c1cn(Cc2ncccn2)nn1` [Compound I-262], for which the inhibition at 10 µM fell in the range of 50 to 75%.

Turning to `Cc1cc(N2CC(CF)C2)ccc1-c1cn(CC2CCCCO2)nn1` (stereo not shown) [Compound I-544], the inhibition at 10 µM was in the range of 25 to 50%.

With `COC1CCCN(c2ccc(-c3cn(CC4CCCCO4)nn3)c(C)c2)C1` (stereo not shown) [Compound I-428], the inhibition at 10 µM fell in the range of 25 to 50%.

In turn, `Cc1cc(N2CCN(Cc3cccnc3)CC2)ccc1-c1cn(CC2CCCCO2)nn1` (stereo not shown) [Compound I-578] yielded an inhibition at 10 µM of 50 to 75%.

`NC(=O)c1cc(C#CC2CC2)ccc1-c1cn(CC2CCCCO2)nn1` (stereo not shown) [Compound I-234]: the inhibition at 10 µM was at most 25%.

`Cc1cc(N2CCN(C3(c4ccccn4)CC3)CC2)ccc1-c1cn(CC2CCCCO2)nn1` (stereo not shown) [Compound I-613] displayed an inhibition at 10 µM of at most 25%.

`Cc1cc(C2CCOCC2)ccc1-c1cn(CC2CCCCO2)nn1` (stereo not shown) [Compound I-485] gave an inhibition at 10 µM of at most 25%.

In turn, `Cc1cc(C#CC2CC2)ccc1-c1cn(CC2CCCCS2)nn1` (stereo not shown) [Compound I-258] gave an inhibition at 10 µM of 50 to 75%.

Take `Cc1cc(N2CC(C(F)F)C2)ccc1-c1cn(CC2CCCCO2)nn1` (stereo not shown) [Compound I-520]: the inhibition at 10 µM was 50 to 75%.

`OCc1cc(C#CC2CC2)ccc1-c1cn(CC2CCCCO2)nn1` (stereo not shown) [Compound I-216] yielded an inhibition at 10 µM of at most 25%.

As for `Cc1cc(N2CC(C)(O)C2)ccc1-c1cn(CC2CCCCO2)nn1` (stereo not shown) [Compound I-524], the inhibition at 10 µM was at most 25%.

The compound `Cc1cc(N2CC3(CCN(Cc4ccccc4)CC3)C2)ccc1-c1cn(CC2CCCCO2)nn1` (stereo not shown) [Compound I-156] gave an inhibition at 10 µM of 50 to 75%.

In the case of `CN(C)Cc1cc(C#CC2CC2)ccc1-c1cn(CC2CCCCO2)nn1` (stereo not shown) [Compound I-356], the inhibition at 10 µM lay within 25 to 50%.

The same test, now with this note: HEK293, single concentration 15 μM (designated H).
As to `C(#Cc1ccc(-c2cn(CC3CCCCO3)nn2)cc1)CN1CCCCC1` (stereo not shown) [Compound I-48], the inhibition at 15 µM is at most 25%.

Still in this test, the particulars now being: HEK293, single concentration 25 μM (designated I).
For `Cc1c(-c2ccc(OCc3ccccn3)cc2)nnn1CC1CCCCO1` (stereo not shown) [Compound I-50], the inhibition at 25 µM lay in the range of 25 to 50%.

Compound `C(#CC1CC1)c1ccc(-c2ccn(CC3CCCCO3)n2)cc1` (stereo not shown) [Compound I-321] displayed an inhibition at 25 µM of 25 to 50%.

`FC(F)(F)COc1ccc(-c2cn(CC3CCCCO3)nn2)cc1` (stereo not shown) [Compound I-51] yielded an inhibition at 25 µM of at most 25%.

As for `Cc1nc(-c2ccc(C#CC3CC3)cc2)cn1CC1CCCCO1` (stereo not shown) [Compound I-336], the inhibition at 25 µM is at most 25%.

Staying with this test, now noted: HEK293 cells, antagonism of 200 nmol/L ZQ-16.
`c1ccc(COc2ccc3c(c2)CCc2cn(CC4CCCCO4)nc2-3)cc1` (single isomer, unassigned) [Compound I-330]: the IC50 was in the range of 300 to 1000 nM.

Compound `COC(c1cn(Cc2ncccn2)nn1)c1cc(C#CC2CC2)ccc1C` (stereo not shown) [Compound I-674] had an IC50 of 300 to 1000 nM.

In the case of `CO[C@@H](c1cn(C[C@@H]2CCCCO2)nn1)c1cc(C#CC2CC2)ccc1C` [Compound I-513], the IC50 is above 2000 nM.

On to `CC1(CO)CN(c2ccc(-c3cn(CC4OCC5(CCC5)O4)nn3)c(OC3CC3)c2)C1` (stereo not shown) [Compound I-810], for which the IC50 lay in the range of 300 to 1000 nM.

In the case of `CC1(NCc2ccccn2)CN(c2ccc(-c3cn(CC4CCCCO4)nn3)c(CC(F)(F)F)c2)C1` (stereo not shown) [Compound I-744], the IC50 lay in the range of 300 to 1000 nM.

On to `Cc1ccc(C#CC2CC2)cc1N(C)c1cn(CC2OCC(C)(C)CO2)nn1` [Compound I-761, N-(5-(cyclopropylethynyl)-2-methylphenyl)-1-((5,5-dimethyl-1,3-dioxan-2-yl)methyl)-N-methyl-1H-1,2,3-triazol-4-amine], for which the IC50 fell in the range of 300 to 1000 nM.

`Cc1ccc(C#CC2CC2)cc1C1(c2cn(CC3OCC(C)(C)CO3)nn2)OCCO1` [Compound I-721] yielded an IC50 of 300 to 1000 nM.

In the case of `CC1(C)COC(Cn2cc(-c3ncc(C#CC4CC4)cc3OC3CC3)nn2)OC1` [Compound I-702], the concentration for half-maximal inhibition (IC50) is at most 300 nM.

In the case of `CN(C)c1cc(N2CC(C)(CO)C2)c(F)cc1-c1cn(CC2CC(C)(C)CO2)nn1` (stereo not shown) [Compound I-710], the IC50 was at most 300 nM.

On to `Cc1cc(N2CCN(Cc3cccnc3)CC2)ccc1-c1cn(CC2CCCCO2)nn1` (stereo not shown) [Compound I-578], for which the IC50 was above 3000 nM.
